Results on 14 compounds are retold here after patent publication US9657057B2, “Dipeptide and tripeptide epoxy ketone protease inhibitors” (Onyx Therapeutics, Inc., priority 2013, dated 2017).

pIC50: −log10 of the molar value. ≈ marks a conversion by molar mass, not a printed value. Where “and” joins values, the source holds several entries; their conditions need not be identical. Equal entries are not always repeated.

In data set [1] the target is c20S (constitutive 20S proteasome) (Homo sapiens, UniProt P20618+P28074). Put plainly: 20S proteasome assay, chymotrypsin-like activity (LLVY), c20S. It counts as biochemical. Conditions: LLVY c20S Hu 1 h CONT: IC50 (nM), succinyl-Leu-Leu-Val-Tyr-AMC. The text has this: (§1) Assay buffer consisted of TE buffer [20 mmol/L Tris (pH 8.0), 0.5 mmol/L EDTA] with (20S) or without (cell lysate) 0.03% SDS. Reactions were initiated by enzyme or lysate addition and monitored for AMC product formation at 27jC with a plate-based spectofluorometer (Tecan).

Data set [2] concerns the target i20S (20S immunoproteasome) (Homo sapiens, UniProt P20618+P28062). The data set is described as follows: 20S proteasome assay, chymotrypsin-like activity (LLVY), i20S. Conditions: LLVY i20S Hu 1 h CONT: IC50 (nM), succinyl-Leu-Leu-Val-Tyr-AMC. It counts as biochemical.
Excerpt: as §1

The next data set is described as follows: Solubility pH 7. Conditions: pH 7, aqueous buffer. It counts as physicochemical.
For the next data set, the target named is T1, LMP7 (Homo sapiens, UniProt P20618+P28062).
T1 construct: endogenous in cells; host or cells: MOLT-4
The data set is described as follows: ProCISE proteasome subunit assay, LMP7. It counts as biochemical. Conditions: for pIC50: MOLT4 lysate Hu 1 h. In a few lines: (§2)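 MOLT-4 cell lysate was incubated with compound for 1 h at 25° C, then a subunit-binding probe was applied; probe-bound subunits were pulled down on streptavidin beads after guanidine denaturation and detected with subunit-specific antibodies by HRP chemiluminescence. Signal was normalized to protein and expressed as percent of DMSO control to fit IC50.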

The target of the next data set is T2, β5 (Homo sapiens, UniProt P20618+P28074).
T2 construct: endogenous in cells; host or cells: MOLT-4
The data set is described as follows: ProCISE proteasome subunit assay, β5. Conditions: for pIC50: MOLT4 lysate Hu 1 h. It counts as biochemical. The gist of the method: as §2

Consider `C[C@@H](NC(=O)CC(C)(C)O)C(=O)N[C@@H](Cc1ccc(S(C)(=O)=O)cc1)C(=O)N[C@@H](CC1CCCC1)C(=O)[C@@]1(C)CO1` [Compound C-2050, N—((R)-1-(((S)-1-(((S)-3-cyclopentyl-1-((R)-2-methyloxiran-2-yl)-1-oxopropan-2-yl)amino)-3-(4-(methylsulfonyl)phenyl)-1-oxopropan-2-yl)amino)-1-oxopropan-2-yl)-3-hydroxy-3-methylbutanamide], for which the IC50 in data set [1] turned out to be 521 nM; in data set [2] it was 49.2 nM. This compound displayed a solubility in “Solubility pH 7” of 6160 µg/mL (≈ 10400 µM). Moreover, the pIC50 against LMP7 is 7.17; against β5, 6.23.

In the case of `COc1ccc(C[C@H](NC(=O)[C@@H](NC(=O)OCc2ccccc2)C2COC2)C(=O)N[C@@H](Cc2ccccc2)C(=O)[C@@]2(C)CO2)cc1` [Compound C-2035, benzyl ((S)-2-(((S)-3-(4-methoxyphenyl)-1-(((S)-1-((R)-2-methyloxiran-2-yl)-1-oxo-3-phenylpropan-2-yl)amino)-1-oxopropan-2-yl)amino)-1-(oxetan-3-yl)-2-oxoethyl)carbamate], the IC50 in data set [1] came to 15.3 nM; in data set [2] it was 4.6 nM. Further, in “Solubility pH 7”, the solubility worked out at 3.1 µg/mL (≈ 4.92 µM). Besides, the pIC50 against LMP7 is 7.88; at β5, 7.68.

As to `COc1ccc(C[C@H](NC(=O)[C@@H]2CCC(=O)N2)C(=O)N[C@@H](Cc2ccccc2)C(=O)[C@@]2(C)CO2)cc1` [Compound C-3013, (S)—N—((S)-3-(4-methoxyphenyl)-1-(((S)-1-((R)-2-methyloxiran-2-yl)-1-oxo-3-phenylpropan-2-yl)amino)-1-oxopropan-2-yl)-5-oxopyrrolidine-2-carboxamide], the IC50 is 15900 nM in data set [1] and 4050 nM in data set [2]. This compound registered a solubility in the data set “Solubility pH 7” of 1910 µg/mL (≈ 3870 µM). Further, the negative-log IC50 (pIC50) against LMP7 was 5.46; against β5 it was 4.85.

On to `COc1ccc(C[C@H](NC(=O)[C@@H](C)NC(=O)C2=C(C)c3ccccc3C2)C(=O)N[C@@H](CC2CCCC2)C(=O)[C@@]2(C)CO2)cc1` [Compound C-2040, N—((R)-1-(((S)-1-(((S)-3-cyclopentyl-1-((R)-2-methyloxiran-2-yl)-1-oxopropan-2-yl)amino)-3-(4-methoxyphenyl)-1-oxopropan-2-yl)amino)-1-oxopropan-2-yl)-3-methyl-1H-indene-2-carboxamide], for which the figures for the 50% inhibitory concentration (IC50) in data set [1] and in data set [2] were 4610 nM and 624 nM, respectively. The solubility in “Solubility pH 7” was 0.3 µg/mL (≈ 0.499 µM). The values for the pIC50 against LMP7 and against β5 were 7.13 and 5.43, respectively.

Take `COc1ccc(C[C@H](NC(=O)[C@@H](C)NC(=O)C2=C(C)c3ccccc3C2)C(=O)N[C@@H](Cc2ccccc2)C(=O)[C@@]2(C)CO2)cc1` [Compound C-2048, N—((R)-1-(((S)-3-(4-methoxyphenyl)-1-(((S)-1-((R)-2-methyloxiran-2-yl)-1-oxo-3-phenylpropan-2-yl)amino)-1-oxopropan-2-yl)amino)-1-oxopropan-2-yl)-3-methyl-1H-indene-2-carboxamide]: the IC50 in data set [1] came to 411 nM; in data set [2], 55.2 nM; against LMP7 (ProCISE LMP7 MOLT4 lysate Hu 1 h CONT: IC50 (nM)) it was 48.6 nM; at β5 (ProCISE beta5 MOLT4 lysate Hu 1 h CONT: IC50 (nM)), 379 nM. The same compound displayed a solubility in “Solubility pH 7” of 1.4 µg/mL (≈ 2.3 µM).

`COc1ccc(C[C@H](NC(=O)[C@@H](C)NC(=O)CC(C)(O)C(F)(F)F)C(=O)N[C@@H](CC2CCCC2)C(=O)[C@@]2(C)CO2)cc1` (stereo partly drawn) [Compound C-2054, N—((R)-1-(((S)-1-(((S)-3-cyclopentyl-1-((R)-2-methyloxiran-2-yl)-1-oxopropan-2-yl)amino)-3-(4-methoxyphenyl)-1-oxopropan-2-yl)amino)-1-oxopropan-2-yl)-4,4,4-trifluoro-3-hydroxy-3-methylbutanamide]: the IC50 in data set [1] amounted to 723 nM; in data set [2], 55 nM. In “Solubility pH 7”, the concentration in solution (solubility) came to 122 µg/mL (≈ 204 µM). Further, the values for the pIC50 on LMP7 and against β5 were 7.13 and 6.17, respectively.

As for `COc1ccc(C[C@H](NC(=O)[C@@H](C)NC(=O)C[C@H](C)O)C(=O)N[C@@H](CC2CCCC2)C(=O)[C@@]2(C)CO2)cc1` [Compound C-2043, (S)—N—((R)-1-(((S)-1-(((S)-3-cyclopentyl-1-((R)-2-methyloxiran-2-yl)-1-oxopropan-2-yl)amino)-3-(4-methoxyphenyl)-1-oxopropan-2-yl)amino)-1-oxopropan-2-yl)-3-hydroxybutanamide], the concentration for half-maximal inhibition (IC50) was found to be 15100 nM in data set [1] and 271 nM in data set [2]. Besides, the solubility in “Solubility pH 7” came out at 2380 µg/mL (≈ 4480 µM). Further, the values for the negative logarithm of the IC50 (pIC50) on LMP7 and at β5 were 6.23 and 4.96, respectively.

For `CC[C@](C)(O)CC(=O)N[C@H](C)C(=O)N[C@@H](Cc1ccc(OC)cc1)C(=O)N[C@@H](CC1CCCC1)C(=O)[C@@]1(C)CO1` [Compound C-2051, (S)—N—((R)-1-(((S)-1-(((S)-3-cyclopentyl-1-((R)-2-methyloxiran-2-yl)-1-oxopropan-2-yl)amino)-3-(4-methoxyphenyl)-1-oxopropan-2-yl)amino)-1-oxopropan-2-yl)-3-hydroxy-3-methylpentanamide], the half-inhibitory concentration (IC50) in data set [1] is 459 nM; in data set [2], 34 nM. The compound further came in with a solubility in the data set “Solubility pH 7” of 241 µg/mL (≈ 430 µM). The pIC50 is 7.27 against LMP7 and 6.05 at β5.

With `COc1ccc(C[C@H](NC(=O)[C@H](C)NC(=O)c2cc(C)no2)C(=O)N[C@@H](CC2CCCC2)C(=O)[C@@]2(C)CO2)cc1` [Compound C-2022, N—((S)-1-(((S)-1-(((S)-3-cyclopentyl-1-((R)-2-methyloxiran-2-yl)-1-oxopropan-2-yl)amino)-3-(4-methoxyphenyl)-1-oxopropan-2-yl)amino)-1-oxopropan-2-yl)-3-methylisoxazole-5-carboxamide], the IC50 in data set [1] came out at 65.3 nM; in data set [2], 23.5 nM. Moreover, in the data set “Solubility pH 7”, the concentration in solution (solubility) was 84.7 µg/mL (≈ 153 µM). In addition, the values for the pIC50 against LMP7 and at β5 were 6.71 and 6.37, respectively.

Take `COc1ccc(C[C@H](NC(=O)[C@@H](C)NC(=O)c2nc3ccccc3n2C)C(=O)N[C@@H](CC2CCCC2)C(=O)[C@@]2(C)CO2)cc1` [Compound C-2038, N—((R)-1-(((S)-1-(((S)-3-cyclopentyl-1-((R)-2-methyloxiran-2-yl)-1-oxopropan-2-yl)amino)-3-(4-methoxyphenyl)-1-oxopropan-2-yl)amino)-1-oxopropan-2-yl)-1-methyl-1H-benzo[d]imidazole-2-carboxamide]: the IC50 in data set [1] is 3550 nM and 7630 nM; in data set [2], 722 nM and 649 nM. Moreover, the solubility in “Solubility pH 7” was determined as 1.8 µg/mL (≈ 2.98 µM). The values for the pIC50 against LMP7 and at β5 were 6.54 and 5.57, respectively.

As to `COc1ccc(C[C@H](NC(=O)[C@@]2(C)CCC(=O)N2)C(=O)N[C@@H](Cc2ccccc2)C(=O)[C@@]2(C)CO2)cc1` [Compound C-3010, (R)—N—((S)-3-(4-methoxyphenyl)-1-(((S)-1-((R)-2-methyloxiran-2-yl)-1-oxo-3-phenylpropan-2-yl)amino)-1-oxopropan-2-yl)-2-methyl-5-oxopyrrolidine-2-carboxamide], the figures for the IC50 in data set [1] and in data set [2] were 4080 nM and 1610 nM, respectively. Also, in the data set “Solubility pH 7”, the solubility was 1380 µg/mL (≈ 2720 µM). Besides, the pIC50 against LMP7 was 5.93; against β5, 5.37.

For `COc1ccc(C[C@H](NC(=O)[C@@H](C)NC(=O)c2ccccn2)C(=O)N[C@@H](CC2CCCC2)C(=O)[C@@]2(C)CO2)cc1` [Compound C-2031, N—((R)-1-(((S)-1-(((S)-3-cyclopentyl-1-((R)-2-methyloxiran-2-yl)-1-oxopropan-2-yl)amino)-3-(4-methoxyphenyl)-1-oxopropan-2-yl)amino)-1-oxopropan-2-yl)picolinamide], the IC50 in data set [1] worked out at 18300 nM; in data set [2], 763 nM. Moreover, the solubility in the data set “Solubility pH 7” is 41.7 µg/mL (≈ 75.7 µM). Further, the pIC50 against LMP7 was 5.84; at β5 it was 4.57.

For `COCOCCC(=O)N[C@@H](C)C(=O)N[C@@H](Cc1ccc(OC)cc1)C(=O)N[C@@H](Cc1ccccc1)C(=O)[C@@]1(C)CO1` [Compound C-2013, (S)-2-((S)-2-(3-(methoxymethoxy)propanamido)propanamido)-3-(4-methoxyphenyl)-N—((S)-1-((R)-2-methyloxiran-2-yl)-1-oxo-3-phenylpropan-2-yl)propanamide], the half-inhibitory concentration (IC50) in data set [1] turned out to be 117 nM; in data set [2] it was 40.2 nM. Moreover, the concentration in solution in “Solubility pH 7” (solubility) was 725 µg/mL (≈ 1270 µM). Also, the negative-log IC50 (pIC50) is 7.18 against LMP7 and 6.45 against β5.

Consider `COc1ccc(C[C@H](NC(=O)[C@@H](CN2CCOCC2)NC(=O)c2cc(C)no2)C(=O)N[C@@H](CC2CCCC2)C(=O)[C@@]2(C)CO2)cc1` [Compound C-2045, N—((R)-1-(((S)-1-(((S)-3-cyclopentyl-1-((R)-2-methyloxiran-2-yl)-1-oxopropan-2-yl)amino)-3-(4-methoxyphenyl)-1-oxopropan-2-yl)amino)-3-morpholino-1-oxopropan-2-yl)-3-methylisoxazole-5-carboxamide], for which the 50% inhibitory concentration (IC50) in data set [1] is 1290 nM; in data set [2], 102 nM. The amount in solution in “Solubility pH 7” (solubility) came to 160 µg/mL (≈ 250 µM). Also, the pIC50 against LMP7 was 6.66; at β5 it was 5.53.

As a reminder, the IC50 is the concentration at which inhibition is half-maximal. The solubility is the concentration that dissolves in the medium under given conditions. A high value points to much dissolved substance. As usually defined, the pIC50 is the negative decadic logarithm of the IC50, by convention in mol/L. A higher pIC50 goes with a small IC50.
